# Read-outs that look alike come from different tables or passages of the source.
# Key:
# [1] = system: HCV; experiment: In vitro anti-HCV assay in HCV RNA-replicating cell line AVA5; assay type: cell-based; settings: HCV
# Experimental: The antiviral activity of test compounds were assayed in the stably HCV RNA-replicating cell line. AVA5, derived by transfection of the human hepatoblastoma cell line, Huh^7 (Blight et al., 2000). Experimental drugs were added to dividing cultures once daily for three days. Media was changed with each addition of compound. Cultures generally started the assays at 50% confluence and reached confluence during the last day of treatment. HCV RNA and cellular β-actin RNA levels were assessed 24 hours after the last dose of compound using dot blot hybridization. Assays were conducted using a single dose of test compound (in triplicate cultures).
# Both HCV and β-actin RNA levels in the treated cultures were expressed as a percentage of the mean levels of RNA detected in untreated cultures. β-actin RNA levels were used both as a measure of toxicity, and to normalize the amount of cellular RNA in each sample. A level of 30% or less HCV RNA (relative to control cultures) was considered to be a positive antiviral effect, and a level of 50% or less β-actin RNA (relative to control cultures) is considered to be a cytotoxic effect.
# Dividing cultures of AVAB cells were treated once daily for three days (media was changed with each addition of compound) with 4 concentrations of test compounds (3 cultures per concentration). A total of 6 untreated control cultures, and triplicate cultures treated with 10, 3, and 1 IU/ml α-interferon (active antiviral with no cytotoxicity), and 100, 10, and 1 μM ribavir ([…]) served as controls. HCV RNA and cellular β-actin FNA levels were assessed 24 hours after the last dose of compound using dot blot hybridization. β-actin RNA levels were used to normalize the amount of cellular RNA in each sample.
# Toxicity analyses were performed on separate plates from those used for the antiviral assays. Cells for the toxicity analyses were cultured and treated with test compounds with the same schedule and under identical culture conditions used for the antiviral evaluations. Each compound was tested at 4 concentrations, each in triplicate cultures. Uptake of neutral red dye was used to determine the relative level of toxicity 24 hours following the last treatment. The absorbance of internalized dye at […] (A510) was used for the quantitative analysis. Values in test cultures were compared to 9 cultures of untreated cells maintained on the same plate as the test cultures.
# Assays similar to those described above were conducted.
# [2] = system: HSV-1 strain KOS1.1; assay type: cell-based; settings: for yield of cell-free and cell-associated virus: 24 hours post-infection, MOI 50, BCD 7.2 mg/ml, ACV 400 μg/ml or both, pre, during and post infection treatment (FIG. 1)
# [3] = Aqueous solubility; assay type: physicochemical
compound,measurement,setting,value
"OC[C@H]1O[C@@H]2O[C@H]3[C@H](O)[C@@H](O)[C@@H](O[C@H]4[C@H](O)[C@@H](O)[C@@H](O[C@H]5[C@H](O)[C@@H](O)[C@@H](O[C@H]6[C@H](O)[C@@H](O)[C@@H](O[C@H]7[C@H](O)[C@@H](O)[C@@H](O[C@H]8[C@H](O)[C@@H](O)[C@@H](O[C@H]1[C@H](O)[C@H]2O)O[C@@H]8CO)O[C@@H]7CO)O[C@@H]6CO)O[C@@H]5CO)O[C@@H]4CO)O[C@@H]3CO [BCD, β-cyclodextrin]",S.I. for HCV,[1],1.13
same,reduction of KOS1.1 virus yield at 24 hours,"[2]; 6.4 mg/ml BCD, MOI 10, post-infection treatment",approximately 10^3 fold
same,yield of cell-free and cell-associated virus,[2],more effective at reducing virus numbers than ACV alone
same,yield of cell-free and cell-associated virus,[2]; listed as β-CD,reduced to a greater extent by β-CD than by a fairly high concentration of acyclovir
same,effect on yield of acyclovir-sensitive HSV KOS1.1 (FIG. 2),"[2]; MOI 10, 20 μM ACV or 6.4 mg/ml β-CD for 24 hours",lowered the yield
same,solubility,[3]; read-out: concentration at which solubility becomes a limiting issue,> 8000 µg/mL
same,solubility,"[3]; water, read-out: concentrations at which insoluble in water",> 10000 µg/mL
